{
  "source": "patent US20090047304A1",
  "about": "“Composition For Body Fat Reduction” (priority 2004, published 2009)",
  "key": {"[1]": {"test": "Double-blind 6-week intake test of test capsules with walking exercise; rate of body fat and body weight measured", "assay_type": "in vivo, human", "details": "by intake of astaxanthin, 6 weeks", "experimental": "This Hematococcus alga extract was formed into a capsule containing 6 mg of astaxanthin in terms of the free form (test capsule) and used for test. As placebo capsule (control capsule), a capsule containing 0 mg of astaxanthin and having the same shape was used for test.\n32 persons to be tested who were healthy women 23-57 years old were divided at random into two groups i.e. test and control groups, each consisting of 16 persons. The allocation of persons to be tested into test and control groups was conducted in a double-blind method not so as to know persons to be tested and persons participated in test the fact that each of persons to be tested belongs to which group.\nEach of persons to be tested in test group took two test capsules a day after supper while each of persons in control group took two placebo capsules a day after supper. The intake period of term (test period of term) was 6 weeks. The rate of body fat and body weight were measured at the beginning (0 week) and the completion (6 weeks) of test for all persons. The rate of body fat was measured with a weighing meter [TBF-511, a product of Tanita Co. Ltd.]\nExercise loaded on all persons to be tested in test period of term was walking. The quantity of exercise was determined by a maximum heart rate countering method. […]"}, "[2]": {"details": "Takahashi et al.; cited from earlier work"}, "[3]": {"details": "cited from earlier work"}},
  "data": [
    {"compound": "CC1=C(/C=C/C(C)=C/C=C/C(C)=C/C=C/C=C(C)/C=C/C=C(C)/C=C/C2=C(C)C(=O)C(O)CC2(C)C)C(C)(C)CC(O)C1=O", "note": "(stereo not drawn) [astaxanthin, 3,3′-dihydroxy-β, β-carotene-4,4′-dione]", "values": [
      {"measurement": "rate of body fat (in words)", "setting": "[1]", "result": "decreases"},
      {"measurement": "mutagenicity", "setting": "[2]", "result": "has not been observed having any mutagenicity"},
      {"measurement": "antioxidative action, times as strong as vitamin E", "setting": "[3]; relative to vitamin E", "result": "about 1000 times"},
      {"measurement": "antioxidative action, times as strong as β-carotene", "setting": "[3]; relative to β-carotene", "result": "about 40 times"}
    ]}
  ]
}
